Source: PMC9968138, “Design, Synthesis, and Biological Evaluation of a Small-Molecule PET Agent for Imaging PD-L1 Expression” (Pharmaceuticals, 2023)
Where “and” joins values, the source holds several entries; their conditions need not be identical. Equal entries are not always repeated. Where two headings read alike, the source gives them in different places. Values belong to the compound of their own block, whether it stands above or below them.

How the values were obtained:
[1] = MTT cell viability assay, PD-L1- cells; type: cell-based; conditions: human, A375 cells (human melanoma, PD-L1 negative), LP-F 0-100 μM
Description: (§1) Human melanoma cell line A375 (PD-L1^-) and human PD-L1 gene-transfected A375 cells (A375-hPD-L1, PD-L1^+) were cultured according to previous work.
(§2) Each well was seeded with 1 × 10^4 cancer cells in 96-well plates. LP-F dissolved in DMEM with gradient concentration (0, 12.5, 25, 50 and 100 μM) was added to each well at triple parallels, respectively, and incubated for 24 h. Then, MTT (5 mg/mL, 20 μL/well) was added and incubated for 4 h. 150 μL DMSO was added each well and shaken vigorously for 10 min to dissolve MTT crystallization. The absorbance of each sample was detected at 490 nm by ELISA, and percent cell viability was calculated based on Eq.: Percentage = sample well/reference well × 100%

[2] = MTT cell viability assay, PD-L1+ cells; type: cell-based; conditions: human, A375-hPD-L1 cells (PD-L1-transfected human melanoma A375), LP-F 0-100 μM
Description: as §1, §2

[3] = Partition coefficient test (1-octanol/water); type: physicochemical
Description: Amounts of 0.37 MBq [^18F]LP-F, 1000 μL water and 1000 μL 1-octanol were mixed in a tube. The mixture was thoroughly shaken for 5 min. After centrifugation, 500 μL water was withdrawn from water phase and its radioactivity was measured by a gamma counter. An equal volume of 1-octanol was withdrawn from the organic phase and measured. The partition coefficient (Log P) was calculated based on Eq. Log P = Lg(Concentration of [^18F]LP-F in 1-octanol/Concentration of [^18F]LP-F in water)
Then, 500 μL water and 500 μL 1-octanol were added to the above tube to replenish the water and the organic phase. The two-phase system was shaken again. Water and the organic phase were sampled and measured and Log P was calculated again. Repeat two more times.

[4] = In vitro stability assay in PBS (radio-HPLC); type: physicochemical; conditions: PBS pH 7.4, 37 °C, 4 h
Description: (§3) In order to investigate the in vitro stability of the radioactive probe, [^18F]LP-F (~14.8 MBq, 40 μL) was incubated in PBS (pH 7.4, 360 μL) at 37 °C for 4 h. [^18F]LP-F (~14.8 MBq, 40 μL) was also mixed with mouse serum (360 μL) and maintained at 37 °C for 4 h. Such PBS solution was subjected to stability analysis using radio-HPLC at 0, 1, 2 and 4 h. A 30 μL sample from the above mouse serum after protein precipitation with 30 μL acetonitrile was also subjected to stability analysis at 0, 1, 2 and 4 h.

PD-L1 = molecular target: T1, PD-L1 (Homo sapiens, UniProt Q9NZQ7); test: Saturation binding assay on PD-L1+ cells; conditions: PD-L1+ cell, one-site model, read-out: dissociation constant (Kd)
T1 construct: expressed in transfected cells; host or cells: A375 human melanoma cells transfected with the human PD-L1 gene (A375-hPD-L1)
Description: as §1
PD-L1^+ cells (2 × 10^5) were added to each tube and incubated with the gradient of concentration of [^18F]LP-F dissolved in DMEM (0 to 128 nM) at 37 °C for 1 h. After incubation, the cells were centrifuged and washed by PBS twice and then were measured for radioactivity by a γ counter as total bound value. For the non-specific bound value, PD-L1^+ cells (2 × 10^5) were added to each tube and incubated with LP-F (50 μM) dissolved in DMEM for half an hour in advance and then incubated with above concentrations of [^18F]LP-F. After centrifugation and wash, the radioactivity was detected. The specific binding value is obtained by subtracting non-specific bound value from total bound value. The equilibrium dissociation constant (Kd) was calculated by non-linear fit in a one-site model through specific binding values and concentrations of [^18F]LP-F.

A375-hPD-L1 cells = test: Cell uptake of the tracer, PD-L1+ cells; type: cell-based, human; conditions: for cell uptake after blockade by LP-F: PD-L1+ cells blocked with 25 μM LP-F; for cell uptake: PD-L1+ cells
Description: as §1
(§4) A375 cells and A375-hPD-L1 cells (1 × 10^6) were added to each tube, separately. [^18F]LP-F (37 kBq/tube) diluted in DMEM was added and incubated at 37 °C for different periods (30, 60, 120, and 240 min). PD-L1^+ cells were incubated with 100 μL 25 μM LP-F for 30 min ahead to block PD-L1^+ cells and then incubated with [^18F]LP-F (37 kBq/tube) at same conditions. After incubation and wash, the cells’ radioactivity was measured.

A375 tumor = test: Micro-PET imaging, PD-L1- tumor; type: in vivo, mice
Text: (§5) Female BALB/c nude mice at age of 5~7 weeks were inoculated subcutaneously with 1 × 10^6 A375-hPD-L1 cells in saline at the left flank and 1 × 10^6 A375 cells at the right flank in the same mouse in order to eliminate individual differences. Animal study can be performed in accordance with the principles laid out by the ethical committee of Jiangsu Institute of Nuclear Medicine.
(§6) A375 (right)/A375-hPD-L1 (left) bilateral tumor-bearing mice (n = 3) were anesthetized and then intravenously injected with [^18F] LP-F (~7.4 MBq) dissolved in saline (200 μL). Dynamic scanning was performed for one hour. ASIPro software (Siemens) was applied to process the PET images. Dynamic images were reconstructed in OSEM3D/MAP algorithm and split into twelve frames. Quantification and analysis of region of interest (ROI) in tumors and organs were carried out.

A375-hPD-L1 tumor = test: Micro-PET imaging, PD-L1+ tumor; type: in vivo, mice
Text: as §5, §6

A375 cells = test: Cell uptake of the tracer, PD-L1- cells; type: cell-based, human; conditions: 4 h
Description: as §1, §4

[5] = In vitro stability assay in mouse serum (radio-HPLC); type: in vitro ADME; conditions: 37 °C, 4 h
Description: as §3

[6] = Micro-PET imaging, non-target tissues (muscle, bone); type: in vivo, mice; conditions: up to 60 min
Text: as §5, §6

T1 sequence (Q9NZQ7 19-290): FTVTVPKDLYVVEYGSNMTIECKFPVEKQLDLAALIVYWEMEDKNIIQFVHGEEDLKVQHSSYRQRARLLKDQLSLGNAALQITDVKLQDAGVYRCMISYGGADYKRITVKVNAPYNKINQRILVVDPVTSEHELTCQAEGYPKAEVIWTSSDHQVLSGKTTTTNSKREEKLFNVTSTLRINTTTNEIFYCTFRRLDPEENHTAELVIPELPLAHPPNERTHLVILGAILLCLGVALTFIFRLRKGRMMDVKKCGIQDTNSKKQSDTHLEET

SMILES: Cc1c(COc2cc(OCc3cccc(C#N)c3)c(CN3CCN(CCOCCOCCOCCF)CC3)cc2Cl)cccc1-c1ccc2c(c1)OCCO2 [LP-F]
viability at 24 h [1]: > 90%
viability at 24 h [2]: > 90%

logP ([3]; mean ± SD, read-out: partition coefficient (Log P)): 2.18 ± 0.16
Log P (single trial) ([3]; trials 1-3): 2.08 and 2.10
logP ([3]; trials 1-3, read-out: Log P (single trial)): 2.37
stability in PBS [4]: high stability
Kd (PD-L1): 226 nM
tumor-to-muscle ratio (T/M) (A375 tumor; 10 min): 0.82 ± 0.24
tumor-to-muscle ratio (T/M) (A375 tumor; 50 min): 0.75 ± 0.19
maximum tumor uptake (A375 tumor; 60 min): 1.23 ± 0.39 %ID/mL
tumor-to-muscle ratio (T/M) (A375 tumor; all the time): below 1
ratio of PD-L1+ tumor uptake to PD-L1- tumor uptake (A375-hPD-L1 tumor; 50 min): 2.95 ± 0.39 times
tumor-to-muscle ratio (T/M) (A375-hPD-L1 tumor; PD-L1+ tumor, 30 min post injection): 2.08 ± 0.38
maximum tumor uptake (A375-hPD-L1 tumor; PD-L1+ tumor, 50 min): 3.53 ± 0.46 %ID/mL
tumor-to-muscle ratio (T/M) (A375-hPD-L1 tumor; PD-L1+ tumor, 50 min): 2.20 ± 0.29
stability in mouse serum [5]: high stability
activity on the bone (defluorination, in vivo stability) [6]: no obvious activity on the bone
SMILES: Cc1c(COc2cc(OCc3cccc(C#N)c3)c(CN3CCN(CCOCCOCCOCC[18F])CC3)cc2Cl)cccc1-c1ccc2c(c1)OCCO2 [[^18F]LP-F]
cell uptake after blockade by LP-F (A375-hPD-L1 cells; 0.5 h): 1.42 ± 0.03 %AD
cell uptake after blockade by LP-F (A375-hPD-L1 cells; 4 h): 1.72 ± 0.02 %AD
cell uptake (A375-hPD-L1 cells; 30 min): 3.66 ± 0.20 %AD
cell uptake (A375-hPD-L1 cells; 4 h): 3.64 ± 0.19 %AD
maximum cell uptake (A375 cells): 1.41 ± 0.09 %AD
